In ChEMBL document CHEMBL1155336, “Design and discovery of 1,3-benzodiazepines as novel dopamine antagonists” (Bioorg Med Chem Lett, 2009) one finds Ratio and pKa data, which are given here for 24 compounds.

What is called pKa is the negative logarithm of the acid dissociation constant. Lower therefore signals a group that gives up its proton readily.

For one data set, the species on record is Homo sapiens. Put plainly: Selectivity ratio, the ratio of ki for human D2 receptor to Ki for human D1 receptor.
`Oc1cc2c(cc1Cl)CCN=C(c1ccccc1)N2`: the Ratio is 42.

For `CC1=NCCc2cc(Cl)c(O)cc2N1c1ccc(C)cc1`, the Ratio was found to be 55.

As for `Oc1cc2c(cc1Cl)CCN=C(NC1CC1)N2`, the Ratio turned out to be 6.

Regarding `Oc1cc2c(cc1Cl)CCN=C(NC1CCCCC1)N2`, the Ratio stood at 12.

As for `CC1=NCCc2cc(Cl)c(O)cc2N1c1ccccc1`, the Ratio was 36.

As to `CN(C)c1ccc(/C=C/C2=NCCc3cc(Cl)c(O)cc3N2c2ccccc2)cc1`, the Ratio turned out to be 23.

Take `CC1=NCCc2cc(Cl)c(O)cc2N1c1ccccc1C`: the Ratio was 31.

`COc1ccc(/C=C/C2=NCCc3cc(Cl)c(O)cc3N2)cc1`: the Ratio was 3.

In the case of `Oc1cc2c(cc1Cl)CCN=C(SCc1ccccc1)N2`, the Ratio came out at 2.

As for `COc1ccc(C2CC2C2=NCCc3cc(Cl)c(O)cc3N2)cc1` (centres undefined), the Ratio was 3.

In the case of `CN(C)c1ccc(/C=C/C2=NCCc3cc(Cl)c(O)cc3N2C2CCCCC2)cc1`, the Ratio is 8.

`CNC1=NCCc2cc(Cl)c(O)cc2N1`: the Ratio is 13.

On to `CSC1=NCCc2cc(Cl)c(O)cc2N1`, for which the Ratio came to 5.

On to `Oc1cc2c(cc1Cl)CCN=C(NCCc1ccccc1)N2`, for which the Ratio came out at 1.

Consider `Oc1cc2c(cc1Cl)CCN=C(C1CC1)N2`, for which the Ratio worked out at 1.

Take `CC1=NCCc2cc(Cl)c(O)cc2N1c1ccsc1`: the Ratio worked out at 32.

As for `CC(C)CC1=NCCc2cc(Cl)c(O)cc2N1`, the Ratio came out at 17.

With `Oc1cc2c(cc1Cl)CCN=C(C1CCCCC1)N2`, the Ratio amounted to 7.

With `NC1=NCCc2cc(Cl)c(O)cc2N1`, the Ratio is 1.

As to `CC1=NCCc2cc(Cl)c(O)cc2N1Cc1ccccc1`, the Ratio was 3.

As for `Oc1cc2c(cc1Cl)CCN=C(NC1CCCC1)N2`, the Ratio amounted to 12.

Turning to `COc1ccc2cc(C3=NCCc4cc(Cl)c(O)cc4N3)ccc2c1`, the Ratio was 4.

System in the next data set: not listed separately
Put plainly: Ionization constant for the compound (pKa). Format: physicochemical.
Turning to `CCCC/N=C/N(C)c1ccccc1`, the pKa is 8.9.

Regarding `N=C(N)Nc1ccccc1` [PHENYLGUANIDINE], the pKa was determined as 10.8.
